Assay results: paper PMC12668304, “A Triple Threat Against Ovarian Cancer: Os(II)‐Pt(IV)‐Ceritinib Conjugates for Photodynamic Therapy, Chemotherapy, and Immunogenic Cell Death Induction” (Angewandte Chemie (International Ed. in English), 2025)

Test system: MCA205 cells co-incubated with RAW 264.7 macrophages
Test: Phagocytosis of treated cancer cells by macrophages (flow cytometry, confocal microscopy)
Assay type: cell-based, mouse
Conditions: IC50,48 h concentration, 3 h co-incubation
Procedure: All compounds were incubated for 4 h with the cells, which were either irradiated at 740 nm (1 h) or kept in the dark. 16 h post‐treatment, cancer cells were stained with CellMask Green, while RAW 264.7 macrophages were stained with CellMask DeepRed. Co‐culture was performed at a 1 : 2 (macrophage : tumour cells) ratio for 3 h. Thereafter, the phagocytosis was evaluated by flow cytometry and confocal microscopy.
To quantify this phagocytic response, a flow cytometry assay was performed, see Figure 12. MCA205 cells were incubated with Os‐Pt‐Cer for 4 h, after which half of the samples were either kept in the dark (−L) or irradiated (+L) for 1 h (740 nm). After an additional 16 h, the cells were co‐incubated with RAW 264.7 macrophages for 3 h. […] Flow cytometry analysis was used to quantify phagocytosis, identifying double‐positive (green–red) events as phagocytic macrophages. […]
analyzed using an ATP assay kit according to the manufacturer’s instructions. Luminescence was measured on a SPARK multimode reader (Tecan). […]
MCA205 and A2780 cells were seeded on µ-slide 8 well (Ibidi) (100 µl/well) and left for 24 h to attach to the bottom at a density of 2 x 10^4 cells/well and incubated overnight. […] 30 minutes before starting confocal fluorescence microscopy analysis, Hoechst was added at a final concentration of 1 µg/mL. […] Images were analysed with LAS X Film FCS software. […]

Structure (SMILES) | phagocytosis, double‐positive (green–red) events (upper right quadrant) (light condition not given) [%] | phagocytosis, double‐positive (green–red) events (upper right quadrant) (+L (740 nm, 1 h)) [%]
O=C1[O][Pt]2([NH][C@@H]3CCCC[C@H]3[NH]2)[O]C1=O [Oxaliplatin] | 6.0 | –
C=Cc1c(C)c2cc3nc(c(CC(=O)O)c4[nH]c(cc5nc(cc1[nH]2)C(C)=C5CC)c(C)c4C(=O)O)[C@@H](CCC(=O)O)[C@@H]3C [Ce6, Chlorin e6] | – | 7.4
